Test results taken from US5977104A, “Use of NK-1 receptor antagonists for treating bipolar disorders” (Merck Sharp & Dohme Ltd., priority 1996, dated 1999).
Read-outs that look alike come from different tables or passages of the source.

Assays:
[1] = tested on: foot tapping in gerbils induced by NK-1 receptor agonist GR73632; test: Gerbil foot-tapping (Assay 2), induced by central infusion of NK-1 receptor agonist GR73632; type: in vivo, Mongolian gerbil; conditions: Meriones unguiculatus, iv
From the text: CNS-penetrant NK-1 receptor antagonists for use in the present invention can be identified by their ability to inhibit foot tapping in gerbils induced by anxiogenic agents (such as pentagastrin) or central infusion of NK-1 receptor agonists such as GR73632, or caused by aversive stimulation such as foot shock or single housing, based on the method of Rupniak & Williams, Eur. J. Pharmacol., 1994, 265, 179.
Male or female Mongolian gerbils (35-70 g) are anaesthetised by inhalation of an isoflurane/oxygen mixture to permit exposure of the jugular vein in order to permit administration of test compounds or vehicle in an injection volume of 5ml/kg i.v. Alternatively, test compounds may be administered orally or by subcutaneous or intraperitoneal routes. A skin incision is then made in the midline of the scalp to expose the skull. […]

[2] = tested on: cisplatin-induced emesis in ferrets; test: Ferret emesis (Assay 3), cisplatin-induced; type: in vivo; conditions: Mustela putorius, po, 4 h; p.o., cisplatin 10 mg/kg i.v. at 60 minutes following dosing; read-out: ferret emesis: ID90
Method: Ten minutes later they are fed with approximately 100 g of tinned cat food. At 60 minutes following oral dosing, cisplatin (10 mg/kg) is given i.v. via a jugular vein catheter inserted under a brief period of halothane anaesthesia. The catheter is then removed, the jugular vein ligated and the skin incision closed. The ferrets recover rapidly from the anaesthetic and are mobile within 10-20 minutes. The animals are observed continuously during recovery from the anaesthetic and for 4 hours following the cisplatin injection, after which time the animals are killed humanely. The numbers of retches and vomits occurring during the 4 hours after cisplatin administration are recorded by trained observers.

[3] = tested on: separation-induced vocalisations by guinea-pig pups; test: Separation-induced vocalisation in guinea-pig pups (Assay 4); type: in vivo; conditions: Cavia porcellus, po, 4 hr. pretreatment; read-out: guinea-pig vocalisation (4 hr. pretreatment): ID50
Method: Male and female guinea-pigs pups are housed in family groups with their mothers and littermates throughout the study. Experiments are commenced after weaning when the pups are 2 weeks old. Before entering an experiment, the pups are screened to ensure that a vigorous vocalisation response is reproducibly elicited following maternal separation. The pups are placed individually in an observation cage (55 cm×39 cm×19 cm) in a room physically isolated from the home cage for 15 minutes and the duration of vocalisation during this baseline period is recorded. […] On test days each pup receives an oral dose or an s.c. or i.p. injection of test compound or vehicle and is then immediately returned to the home cage with its mother and siblings for 30 to 60 minutes (or for up to 4 hours following an oral dose, dependent upon the oral pharmacokinetics of the test compound) before social isolation for 15 minutes as described above. […] Between 6 and 8 animals receive each test compound at each dose tested.

OC[C@@H](O[C@H]1OCCN(Cc2nc[nH]n2)[C@H]1c1ccc(F)cc1)c1cc(C(F)(F)F)cc(C(F)(F)F)c1 [2-(R)-(1-(S)-(3,5-bis(trifluoromethyl)phenyl)-2-hydroxyethoxy)-3-(S) -(4-fluorophenyl)-4-(1,2,4-triazol-3-yl)methylmorpholine]
ED50 ([1]; 5 min, i.v., immediately prior to GR73632 challenge (5 mins.), read-out: gerbil foot-tapping (5 mins.): ID50): 0.38 mg/kg | ED50 ([1]; 24 hours prior to central NK1 agonist challenge, read-out: gerbil foot-tapping (24 hrs.): ID50): 2.2 mg/kg | ED90 [2]: 1 mg/kg | ED50 [3]: 0.91 mg/kg
